Laboratory results as given in US5972894A, “Peptides having potassium channel opener activity” (Cytran, Inc., priority 1997, dated 1999).
Residues, ends and D or L forms follow the SMILES beside them.

Columns and labels:
[1] = test system: Smooth Muscle Cells of Rat Portal Vein; experiment: Spontaneous contractile activity of rat portal vein smooth muscle specimens; type: cell-based; settings: 10^-6 g/ml
Experimental: Rat portal vein SMS samples were surgically isolated from random bred rats weighing 200-250 g. The suitability of each isolated rat portal vein SMS was established by measuring the spontaneous contraction response and its contractile response of the specimen to potassium chloride (KCl) as follows. Each isolated SMS was placed into an organ bath with standard Krebs-Henseleit (KH) solution at 35° C. Then, 0.5 ml of physiological saline were added into the organ bath. In this procedure, one end of the smooth muscle strip was fixed, while the other end of the muscle strip was connected with a probe which transmitted contraction-induced signals to an analog-to-digital converter. The spontaneous contraction curve for each SMS was recorded by taking repeated measurements over a 1-minute period. Next, 0.5 ml of a 600 mM solution of KCl in physiological saline was added to the SMS sample/organ bath to achieve a final concentration of 60 mM KCl. KCl induces contraction of rat portal vein tissue at a fmal tissue concentration of about 60 mM.
The KCl-induced contraction curve for each specimen sample was then recorded over the next 5-minute period. […] During this stabilization period, the spontaneous contraction curve for each SMS was verified by monitoring the data obtained from analog-to-digital converter.
To each SMS in the organ bath prepared according to Steps 2 and 3 above, 0.5 ml of physiological saline was added, and the spontaneous contraction curve was recorded for 1 minute. Each spontaneous contraction curve served as baseline (control) curve for comparison with the respective spontaneous contraction of each SMS in the presence of a test substance or reference substance.
Spontaneous contraction curve values for each SMS were recorded by making repetitive measurements of the spontaneous contractile activity of each sample at 2, 5, 10, and 15 minutes after the addition of the test or reference substance to each SMS/organ bath. Next, 0.5 ml of a solution of 600 mM solution of KCl in […] in the organ bath until a final concentration of 60 mM KCl was achieved. The contractile activity of each SMS was then measured for 5 minutes.

[2] = test system: mice; experiment: Chloroform-induced arrhythmia; type: in vivo
Experimental: Each mouse in the study was treated by intraperitoneal injection of a dose of a test or control substance 15 minutes prior to the administration of a deep chloroform anesthesia. A test or control substance was then administered to each mouse. […] Novocainamide, a known antiarrhythmic agent, served as the positive control substance and was administered to mice in the positive control group at a dose of 240 mg/kg. Physiological saline served as the negative control substance and was administered to the mice in the negative control group.
Chloroform anesthesia was administered to each mouse by placing the mouse in an airtight glass container with cotton wool soaked in 20 ml of absolute chloroform. At the moment of respiratory arrest, the mouse was removed from the jar and electrocardiogram (ECG) monitoring (standard lead II) was initiated and continued for 30 seconds. […] An antiarrhythmic activity for a particular dose of a test substance is pharmaceutically acceptable if 30% of the animals in a test group show the latter test results (i.e., namely, no sign of ventricular paroxysmal rhythm disturbances and heart rate below 100 beats per 30 seconds within 30 seconds following the respiratory arrest).

[3] = test system: rats; experiment: Arterial blood pressure in anesthetized rats; type: in vivo
Experimental: White random-bred male rats weighing approximately 200 g were employed for this study. Each dose of each respective test or control substance was administered to a group of five rats. GE and VT were employed as test substances and were administered intravenously at doses of 0.01, 0.1, 1.0, and 10.0 mg/kg. Physiological saline (0.2 ml) served as the negative control substance. The ganglionic blocking agent, pentamine, served as the positive control substance and was tested at a dose of 5 mg/kg. Following administration of the test substance, positive control substance, or negative control substance, the arterial blood pressure of each animal was monitored.
Prior to administration of the test or control substance, each animal was anesthetized with Chloralose and then both its carotid artery and jugular vein were catheterized. The carotid catheter was connected to an electronic manometer attached to a computer recorder through an analog-to-digital converter. The mean basal level of the arterial blood pressure was determined as follows: For a period of 30 seconds, the digital signal pertaining to the arterial blood pressure was recorded at 1-second intervals. The mean value of these thirty individual measurements was then determined and recorded.
After determining the mean basal level of the arterial blood pressure, a particular dose of the test or control substance was administered in a volume of 0.2 ml of physiological saline to an animal through the jugular venous catheter. Measurements of the arterial blood pressure were then taken during the next 1.5 hours as follows: (i) during the first 5 minutes, the arterial blood pressure was being monitored continuously and mean values were calculated electronically and recorded at each of the ten different 30-second intervals (i.e., 30th second, 60th second, etc.); (ii) thereafter, mean values of the arterial blood pressure were calculated at the first seconds of 10th minute, 15th minute, 30th minute, 45th minute, 60th minute, 75th minute, and 90th minute after administration of the respective test or control substance.

[4] = 0.001 mg/kg i.p. 15 min before chloroform
[5] = 0.01 mg/kg i.p. 15 min before chloroform
[6] = 0.1 mg/kg i.p. 15 min before chloroform
[7] = 1.0 mg/kg i.p. 15 min before chloroform
[8] = 10.0 mg/kg i.p. 15 min before chloroform

Structure (SMILES): NCC(=O)N[C@@H](CCC(=O)O)C(=O)O [GE, L-Glycyl-L-Glutamic acid] (H-Gly-Glu-OH)
- effect on spontaneous contractions (amplitude and area under curve) [1]: appreciably reduced the amplitude of and area under the contraction curve
- Amplitude of spontaneous contraction (% of Control) ([1]; 2 min after application): 114.93%
- Area Under Curve of spontaneous contraction (% of Control) ([1]; 2 min after application): 134.77%
- Amplitude of spontaneous contraction (% of Control) ([1]; 5 min after application): 75.56%
- Area Under Curve of spontaneous contraction (% of Control) ([1]; 5 min after application): 87.51%
- Amplitude of spontaneous contraction (% of Control) ([1]; 10 min after application): 60.37%
- Area Under Curve of spontaneous contraction (% of Control) ([1]; 10 min after application): 70.07%
- Amplitude of spontaneous contraction (% of Control) ([1]; 15 min after application): 63.94%
- Area Under Curve of spontaneous contraction (% of Control) ([1]; 15 min after application): 75.08%
- Antiarrhythmic Effect (no. animals) % [2, 4]: 11.1%
- Antiarrhythmic Effect (no. animals) abs [2, 4]: 1
- Result [2, 4]: No effect
- Antiarrhythmic Effect (no. animals) % [2, 5]: 44.4%
- Antiarrhythmic Effect (no. animals) abs [2, 5]: 4
- Result [2, 5]: Antiarrhythmic effect
- Antiarrhythmic Effect (no. animals) % [2, 6]: 44.4%
- Antiarrhythmic Effect (no. animals) abs [2, 6]: 4
- Result [2, 6]: Antiarrhythmic effect
- Antiarrhythmic Effect (no. animals) % [2, 7]: 55.6%
- Antiarrhythmic Effect (no. animals) abs [2, 7]: 5
- Result [2, 7]: Antiarrhythmic effect
- prevention of chloroform-induced ventricular arrhythmias ([2]; 0.01, 0.1, 1.0, or 10.0 mg/kg): prevent the development of ventricular arrhythmias
- Antiarrhythmic Effect (no. animals) % [2, 8]: 66.7%
- Antiarrhythmic Effect (no. animals) abs [2, 8]: 6
- Result [2, 8]: Antiarrhythmic effect
- Arterial Blood Pressure (Basal Level = 100.00) ([3]; 0.01 mg/kg i.v., 1 min): 101.02%
- Arterial Blood Pressure (Basal Level = 100.00) ([3]; 0.01 mg/kg i.v., 2 min): 102.72%
- Arterial Blood Pressure (Basal Level = 100.00) ([3]; 0.01 mg/kg i.v., 3 min): 103.88%
- Arterial Blood Pressure (Basal Level = 100.00) ([3]; 0.01 mg/kg i.v., 4 min): 99.77%
- Arterial Blood Pressure (Basal Level = 100.00) ([3]; 0.01 mg/kg i.v., 5 min): 102.90%
- Arterial Blood Pressure (Basal Level = 100.00) ([3]; 0.01 mg/kg i.v., 10 min): 96.17%
- Arterial Blood Pressure (Basal Level = 100.00) ([3]; 0.01 mg/kg i.v., 15 min): 97.01%
- Arterial Blood Pressure (Basal Level = 100.00) ([3]; 0.01 mg/kg i.v., 30 min): 98.26%
- Arterial Blood Pressure (Basal Level = 100.00) ([3]; 0.01 mg/kg i.v., 45 min): 99.01%
- Arterial Blood Pressure (Basal Level = 100.00) ([3]; 0.01 mg/kg i.v., 60 min): 93.29%
- Arterial Blood Pressure (Basal Level = 100.00) ([3]; 0.01 mg/kg i.v., 75 min): 94.15%
- Arterial Blood Pressure (Basal Level = 100.00) ([3]; 0.01 mg/kg i.v., 90 min): 102.09%
- Arterial Blood Pressure (Basal Level = 100.00) ([3]; 0.1 mg/kg i.v., 1 min): 96.00%
- Arterial Blood Pressure (Basal Level = 100.00) ([3]; 0.1 mg/kg i.v., 2 min): 96.60%
- Arterial Blood Pressure (Basal Level = 100.00) ([3]; 0.1 mg/kg i.v., 3 min): 97.66%
- Arterial Blood Pressure (Basal Level = 100.00) ([3]; 0.1 mg/kg i.v., 4 min): 97.32%
- Arterial Blood Pressure (Basal Level = 100.00) ([3]; 0.1 mg/kg i.v., 5 min): 98.31%
- Arterial Blood Pressure (Basal Level = 100.00) ([3]; 0.1 mg/kg i.v., 10 min): 96.04%
- Arterial Blood Pressure (Basal Level = 100.00) ([3]; 0.1 mg/kg i.v., 15 min): 94.98%
- Arterial Blood Pressure (Basal Level = 100.00) ([3]; 0.1 mg/kg i.v., 30 min): 93.56%
- Arterial Blood Pressure (Basal Level = 100.00) ([3]; 0.1 mg/kg i.v., 45 min): 80.15%
- Arterial Blood Pressure (Basal Level = 100.00) ([3]; 0.1 mg/kg i.v., 60 min): 83.03%
- Arterial Blood Pressure (Basal Level = 100.00) ([3]; 0.1 mg/kg i.v., 75 min): 83.37%
- Arterial Blood Pressure (Basal Level = 100.00) ([3]; 0.1 mg/kg i.v., 90 min): 84.50%
- Arterial Blood Pressure (Basal Level = 100.00) ([3]; 1.0 mg/kg i.v., 1 min): 70.32%
- Arterial Blood Pressure (Basal Level = 100.00) ([3]; 1.0 mg/kg i.v., 2 min): 84.63%
- Arterial Blood Pressure (Basal Level = 100.00) ([3]; 1.0 mg/kg i.v., 3 min): 90.73%
- Arterial Blood Pressure (Basal Level = 100.00) ([3]; 1.0 mg/kg i.v., 4 min): 93.72%
- Arterial Blood Pressure (Basal Level = 100.00) ([3]; 1.0 mg/kg i.v., 5 min): 98.11%
- Arterial Blood Pressure (Basal Level = 100.00) ([3]; 1.0 mg/kg i.v., 10 min): 94.67%
- Arterial Blood Pressure (Basal Level = 100.00) ([3]; 1.0 mg/kg i.v., 15 min): 92.70%
- Arterial Blood Pressure (Basal Level = 100.00) ([3]; 1.0 mg/kg i.v., 30 min): 90.58%
- Arterial Blood Pressure (Basal Level = 100.00) ([3]; 1.0 mg/kg i.v., 45 min): 88.43%
- Arterial Blood Pressure (Basal Level = 100.00) ([3]; 1.0 mg/kg i.v., 60 min): 88.85%
- Arterial Blood Pressure (Basal Level = 100.00) ([3]; 1.0 mg/kg i.v., 75 min): 90.07%
- Arterial Blood Pressure (Basal Level = 100.00) ([3]; 1.0 mg/kg i.v., 90 min): 89.82%
- Arterial Blood Pressure (Basal Level = 100.00) ([3]; 10.0 mg/kg i.v., 1 min): 94.68%
- Arterial Blood Pressure (Basal Level = 100.00) ([3]; 10.0 mg/kg i.v., 2 min): 100.17%
- Arterial Blood Pressure (Basal Level = 100.00) ([3]; 10.0 mg/kg i.v., 3 min): 101.63%
- Arterial Blood Pressure (Basal Level = 100.00) ([3]; 10.0 mg/kg i.v., 4 min): 101.22%
- Arterial Blood Pressure (Basal Level = 100.00) ([3]; 10.0 mg/kg i.v., 5 min): 100.20%
- Arterial Blood Pressure (Basal Level = 100.00) ([3]; 10.0 mg/kg i.v., 10 min): 95.61%
- Arterial Blood Pressure (Basal Level = 100.00) ([3]; 10.0 mg/kg i.v., 15 min): 91.27%
- Arterial Blood Pressure (Basal Level = 100.00) ([3]; 10.0 mg/kg i.v., 30 min): 88.24%
- Arterial Blood Pressure (Basal Level = 100.00) ([3]; 10.0 mg/kg i.v., 45 min): 89.56%
- Arterial Blood Pressure (Basal Level = 100.00) ([3]; 10.0 mg/kg i.v., 60 min): 85.99%
- Arterial Blood Pressure (Basal Level = 100.00) ([3]; 10.0 mg/kg i.v., 75 min): 87.12%
- Arterial Blood Pressure (Basal Level = 100.00) ([3]; 10.0 mg/kg i.v., 90 min): 78.69%
- effect on mean arterial blood pressure ([3]; after about 60 to 90 minutes): moderate, but delayed, decrease in the mean arterial blood pressure
